# Activity calls are given as the source filed them. The rule behind the calls is not given here.
# What was measured:
# CHO [1] = assay: Cytotoxicity against Cricetulus griseus CHO (Chinese hamster ovary) cells assessed as mitotic index at 200 uM treated for 3 hr by Giemsa staining based light microscopic analysis relative to untreated control (reference value: 100%); assay type: cell-based
# CHO [2] = assay: Cytotoxicity against Cricetulus griseus CHO (Chinese hamster ovary) cells assessed as mitotic index at 500 uM treated for 3 hr by Giemsa staining based light microscopic analysis relative to untreated control (reference value: 100%); assay type: cell-based
# CHO [3] = assay: Cytotoxicity against Cricetulus griseus CHO (Chinese hamster ovary) cells assessed as frequency of first generation of mitotic cells at 1000 uM treated for 3 hr by BrdU assay (reference value: 10%); assay type: cell-based
# CHO [4] = assay: Genotoxicity in Cricetulus griseus CHO (Chinese hamster ovary) cells assessed as slight increase in frequencies of sister chromatid exchange bearing cells at 200 uM by fluorescence-plus-Giemsa technique; assay type: toxicity, cell-based
# CHO [5] = assay: Cytotoxicity against Cricetulus griseus CHO (Chinese hamster ovary) cells assessed as mitotic index at 100 uM treated for 3 hr by Giemsa staining based light microscopic analysis relative to untreated control (reference value: 100%); assay type: cell-based
# CHO [6] = assay: Cytotoxicity against Cricetulus griseus CHO (Chinese hamster ovary) cells assessed as frequency of second generation of mitotic cells at 100 uM treated for 3 hr by BrdU assay (reference value: 90%); assay type: cell-based
# CHO [7] = assay: Antioxidant activity in Cricetulus griseus CHO (Chinese hamster ovary) cells assessed as proportion of H2O2-induced chromosomal aberrations bearing cells at 200 uM pre-incubated with H202 for 1 hr prior to cell addition by Giemsa staining; assay type: functional
# CHO [8] = assay: Cytotoxicity against Cricetulus griseus CHO (Chinese hamster ovary) cells assessed as proliferative replication index at 1000 uM treated for 3 hr by BrdU assay relative to untreated control (reference value: 100%); assay type: cell-based
# CHO [9] = assay: Genotoxicity in Cricetulus griseus CHO (Chinese hamster ovary) cells assessed as increase in frequencies of chromosomal aberrations bearing cells at 0.5 to 2 mM by Giemsa staining; assay type: toxicity, cell-based; details: 2000 µM
# CHO [10] = assay: Cytotoxicity against Cricetulus griseus CHO (Chinese hamster ovary) cells assessed as frequency of first generation of mitotic cells at 100 uM treated for 3 hr by BrdU assay (reference value: 10%); assay type: cell-based
# CHO [11] = assay: Cytotoxicity against Cricetulus griseus CHO (Chinese hamster ovary) cells assessed as frequency of first generation of mitotic cells at 50 uM treated for 3 hr by BrdU assay (reference value: 10%); assay type: cell-based
# CHO [12] = assay: Cytotoxicity against Cricetulus griseus CHO (Chinese hamster ovary) cells assessed as proliferative replication index at 200 uM treated for 3 hr by BrdU assay relative to untreated control (reference value: 100%); assay type: cell-based
# CHO [13] = assay: Cytotoxicity against Cricetulus griseus CHO (Chinese hamster ovary) cells assessed as mitotic index at 1000 uM treated for 3 hr by Giemsa staining based light microscopic analysis relative to untreated control (reference value: 100%); assay type: cell-based
# CHO [14] = assay: Genotoxicity in Cricetulus griseus CHO (Chinese hamster ovary) cells assessed as effect on frequencies of chromosomal aberrations bearing cells at <200 uM by Giemsa staining; assay type: toxicity, cell-based
# CHO [15] = assay: Cytotoxicity against Cricetulus griseus CHO (Chinese hamster ovary) cells assessed as frequency of second generation of mitotic cells at 200 uM treated for 3 hr by BrdU assay (reference value: 90%); assay type: cell-based
# CHO [16] = assay: Cytotoxicity against Cricetulus griseus CHO (Chinese hamster ovary) cells assessed as frequency of third generation of mitotic cells at 50 uM treated for 3 hr by BrdU assay (reference value: 0%); assay type: cell-based
# CHO [17] = assay: Cytotoxicity against Cricetulus griseus CHO (Chinese hamster ovary) cells assessed as proliferative replication index at 50 uM treated for 3 hr by BrdU assay relative to untreated control (reference value: 100%); assay type: cell-based
# CHO [18] = assay: Cytotoxicity against Cricetulus griseus CHO (Chinese hamster ovary) cells assessed as mitotic index at 50 uM treated for 3 hr by Giemsa staining based light microscopic analysis relative to untreated control (reference value: 100%); assay type: cell-based
# CHO [19] = assay: Cytotoxicity against Cricetulus griseus CHO (Chinese hamster ovary) cells assessed as frequency of third generation of mitotic cells at 1000 uM treated for 3 hr by BrdU assay (reference value: 0%); assay type: cell-based
# CHO [20] = assay: Cytotoxicity against Cricetulus griseus CHO (Chinese hamster ovary) cells assessed as frequency of second generation of mitotic cells at 1000 uM treated for 3 hr by BrdU assay (reference value: 90%); assay type: cell-based
# CHO [21] = assay: Cytotoxicity against Cricetulus griseus CHO (Chinese hamster ovary) cells assessed as frequency of third generation of mitotic cells at 100 uM treated for 3 hr by BrdU assay (reference value: 0%); assay type: cell-based
# CHO [22] = assay: Genotoxicity in Cricetulus griseus CHO (Chinese hamster ovary) cells assessed as effect on frequencies of sister chromatid exchange bearing cells at <200 uM by fluorescence-plus-Giemsa technique; assay type: toxicity, cell-based
# CHO [23] = assay: Cytotoxicity against Cricetulus griseus CHO (Chinese hamster ovary) cells assessed as frequency of second generation of mitotic cells at 50 uM treated for 3 hr by BrdU assay (reference value: 90%); assay type: cell-based
# CHO [24] = assay: Genotoxicity in Cricetulus griseus CHO (Chinese hamster ovary) cells assessed as increase in frequencies of sister chromatid exchange bearing cells at 0.5 to 2 mM by fluorescence-plus-Giemsa technique; assay type: toxicity, cell-based; details: 2000 µM
# CHO [25] = assay: Cytotoxicity against Cricetulus griseus CHO (Chinese hamster ovary) cells assessed as frequency of first generation of mitotic cells at 200 uM treated for 3 hr by BrdU assay (reference value: 10%); assay type: cell-based
# CHO [26] = assay: Cytotoxicity against Cricetulus griseus CHO (Chinese hamster ovary) cells assessed as frequency of third generation of mitotic cells at 200 uM treated for 3 hr by BrdU assay (reference value: 0%); assay type: cell-based
# CHO [27] = assay: Cytotoxicity against Cricetulus griseus CHO (Chinese hamster ovary) cells assessed as proliferative replication index at 100 uM treated for 3 hr by BrdU assay relative to untreated control (reference value: 100%); assay type: cell-based
# CHO [28] = assay: Antioxidant activity in Cricetulus griseus CHO (Chinese hamster ovary) cells assessed as protection against H2O2-induced chromosomal aberrations treated for 15 min prior to H2O2 addition measured after 2 hr by Giemsa staining; assay type: functional, cell-based
compound,measurement,setting,value
"OCCc1cc(O)c(O)c(O)c1 [3,4,5-TRIHYDROXYPHENETHYL ALCOHOL]",Activity,CHO [1],58.3%
same,Activity,CHO [2],4.3%
same,Activity,CHO [3],0%
same,Activity,CHO [4],Toxic
same,Activity,CHO [5],99.1%
same,Activity,CHO [6],75%
same,Activity,CHO [7],5%
same,Activity,CHO [8],0%
same,Activity,CHO [9],Toxic
same,Activity,CHO [10],25%
same,Activity,CHO [11],8%
same,Activity,CHO [12],79%
same,Activity,CHO [13],0%
same,Activity,CHO [14],Non-toxic
same,Activity,CHO [15],50%
same,Activity,CHO [16],0%
same,Activity,CHO [17],100%
same,Activity,CHO [18],96.5%
same,Activity,CHO [19],0%
same,Activity,CHO [20],0%
same,Activity,CHO [21],0%
same,Activity,CHO [22],Non-toxic
same,Activity,CHO [23],92%
same,Activity,CHO [24],Toxic
same,Activity,CHO [25],50%
same,Activity,CHO [26],0%
same,Activity,CHO [27],92%
same,Activity,CHO [28],Active
COCCc1cc(O)c(O)c(O)c1,Activity,CHO [1],87.7%
same,Activity,CHO [2],15.6%
same,Activity,CHO [3],0%
same,Activity,CHO [4],Toxic
same,Activity,CHO [5],80.8%
same,Activity,CHO [6],82%
same,Activity,CHO [7],5%
same,Activity,CHO [8],0%
same,Activity,CHO [9],Toxic
same,Activity,CHO [10],18%
same,Activity,CHO [11],6%
same,Activity,CHO [12],87%
same,Activity,CHO [13],0%
same,Activity,CHO [14],Non-toxic
same,Activity,CHO [15],66%
same,Activity,CHO [16],0%
same,Activity,CHO [17],102%
same,Activity,CHO [18],79.1%
same,Activity,CHO [19],0%
same,Activity,CHO [20],0%
same,Activity,CHO [21],0%
same,Activity,CHO [22],Non-toxic
same,Activity,CHO [23],94%
same,Activity,CHO [24],Toxic
same,Activity,CHO [25],34%
same,Activity,CHO [26],0%
same,Activity,CHO [27],96%
same,Activity,CHO [28],Active

# Source: ChEMBL document CHEMBL3046171, “Synthesis and biological evaluation of gallic acid analogs” (Med Chem Res, 2013)
